# Measurements taken from patent US7741540B2, “Compositions comprising D-amino acids” (BASF Plant Science GmbH, priority 2002, dated 2010).
# Entries after “also recorded” stand apart in the source; their conditions may differ.
# Legend:
# [1] = system: wild type Arabidopsis; experiment: Growth of wild type plants on D-Asn or D-ile in sterile agar culture; type: in vivo, Arabidopsis thaliana
# [2] = system: Arabidopsis thaliana expressing Rhodotorula gracilis D-amino acid oxidase (dao1); experiment: Growth of plants expressing D-amino acid oxidase on D-amino acid media in sterile agar culture; type: in vivo
# Source text: Transgenic plants expressing D-amino acid oxidase were constructed essentially in the same way as the dsdA plants described above, with the following modifications: The dao1 gene (EC: 1.4.3.3 (SEQ ID NO: 6): NCBIU60066 (SEQ ID NO: 5)) from the yeast Rhodotorula gracilis (Rhodosporidium toruloides) was cloned with PCR with a cDNA library prepared from yeast grown on D-alanine containing medium to induce expression of the target gene, as a template. PCR primers were 5′-[…] (SEQ ID NO: 3) and 5′-[…] (SEQ ID NO: 4).
# PCR was also performed with another set of primers, with one primer flanking the 5′ end of the open reading frame as set out above and a 3′ primer excluding the last […] nucleotides. The last nine nucleotides encode the signal peptide SKL, which guides the protein to the peroxisome sub-cellular organelle.
# The resulting amplified sequences encode proteins which have the same amino acid sequence but which differ in the respect of their location in the cell. The truncated polypeptide, without the signal peptide, is expressed in the cytosol, while the full-length polypeptide is expressed in the peroxisome.
# Construction of Arabidopsis thaliana plants expressing two variants of Rhodotorula gracilis D-amino acid oxidase were made as described above.
# [3] = system: Lycopersicon esculentum; experiment: Growth of wild-type seedlings on nitrate free agar media amended with D-serine; type: in vivo; details: two to three weeks, 0, 0.3, 3 and 30 mM tested
# Experimental: (§1) A. thaliana seeds from non-transformed plants and D-Serine ammonia-lyase transformed plants were surface sterilised with 70% ethanol and 0.1% Tween 80 for 10 minutes and rinsed briefly in 95% ethanol. 10 seeds were sown in each plate and the plates where thereafter sealed with gas permeable tape. The growth medium was half-strength MS (Murashige, T. & Skoog, F. Physiol Plant 15, 310-313 (1962)) (with 0.5% w/v sucrose and 0.8% w/v agar) with nitrogen either excluded or included as 3 mM nitrate. Filter sterilised D-serine was added to the medium after autoclaving. Plants were grown for 14 days after germination with a 16 h photoperiod at 24° C. Plants were extracted from the plates, washed three times in 0.5 mM CaCl2 and thereafter dried at 40° C. for 48 hours before dry weight measurements. The N content was determined on dried plants using an elemental analyser (PerkinElmer 2400 CHN). Biomass and nitrogen content were measured on a per plate basis and there were 10 plants per plate. Six independent transgenic lines were evaluated for their capacity to grow on D-serine and no substantial difference was noticed among the lines, although dsdA transcript levels varied substantially according to northern blot analyses. Seeds from Solanum esculentum, Hordeum vulgare, Zea mays, Populus tremuloides, Nicotiana tabacum and Arabidopsis thaliana were surface sterilised and grown for two to three weeks on agar media identical to the nitrate free media described above and amended with 0, 0.3, 3 and 30 mM D-serine.
# [4] = system: Zea mays; experiment: as above; type: in vivo; details: two to three weeks, 0, 0.3, 3 and 30 mM tested
# Experimental: as §1
# [5] = system: Populus tremuloides; experiment: as above; type: in vivo; details: two to three weeks, 0, 0.3, 3 and 30 mM tested
# Experimental: as §1
# [6] = system: Nicotiana tabacum; experiment: as above; type: in vivo; details: two to three weeks, 0, 0.3, 3 and 30 mM tested
# Experimental: as §1
# [7] = system: Hordeum vulgare; experiment: as above; type: in vivo; details: two to three weeks, 0, 0.3, 3 and 30 mM tested
# Experimental: as §1
# [8] = system: Arabidopsis seedlings grown on soil; experiment: Selection of transgenic seedlings on soil by spraying D-Serine; type: in vivo, Arabidopsis thaliana; details: 30 mM sprayed three times during one week
# [9] = system: dsdA-transformed embryos of Picea abies; experiment: Selection of dsdA-transformed embryos on D-serine medium; type: cell-based
# Experimental: The transformation method used was particle bombardment of a cell suspension. Somatic embryonic cell suspension cultures of Picea abies were grown on a range of D-serine concentrations; 0, 0.3, 3 and 30 mM D-serine. D-serine was lethal to cells at and above 3 mM.
# [10] = system: tobacco transformed with dsdA; experiment: Resistance of dsdA-transformed plants to D-Ser; details: in vivo
# Source text: (§2) Poplar and tobacco were transformed using the same vector and transformation protocol described above for the transformation of Arabidopsis.
# [11] = system: poplar transformed with dsdA; experiment: Resistance of dsdA-transformed plants to D-Ser; details: in vivo
# Source text: as §2
# [12] = system: wild type tobacco; experiment: Shoot formation on shoot inducing media with D-Ser; type: in vivo
# [13] = system: wild type poplar; experiment: Shoot formation on shoot inducing media with D-Ser; type: in vivo
# [14] = system: Somatic embryonic cell suspension cultures of Picea abies; experiment: Somatic embryonic cell suspension cultures grown on a range of D-serine concentrations; type: cell-based; details: 0, 0.3, 3 and 30 mM tested
# Experimental: Somatic embryonic cell suspension cultures of Picea abies were grown on a range of D-serine concentrations; 0, 0.3, 3 and 30 mM D-serine. D-serine was lethal to cells at and above 3 mM.
# [15] = system: transgenic Arabidopsis thaliana expressing E. coli D-serine ammonia-lyase (dsdA); experiment: Growth and N content of transgenic plants expressing dsdA on D-serine media; type: in vivo
# Source text: The E. coli gene dsdA (D-serine dehydratase (D-serine deaminase) [EC:4.3.1.18 (SEQ ID NO: 8)] NCBI accession number J01603 (SEQ ID NO: 7)) was amplified by PCR using primers 5′-[…] (SEQ ID NO: 1) and 5′-[…] (SEQ ID NO: 2). The PCR product was sub-cloned into pT-easy (Promega) and sequenced with DYEnamics cycle sequencing kit, (Amersham Pharmacia biotech). Alignment analysis with the database sequence confirmed successful full length cloning of dsdA. The clone was subsequently ligated into the BamH1 site of the CaMV 35S expression cassette of the binary vector pPCV702Km, which is a disarmed Ti-plasmid of Agrobacterium tumefaciens, to generate the vector pPCV702:dsdA. Restriction analysis of this vector with endonuclease confirmed orientation of insertion.
# A. thaliana, ecotype Col-0, plants were transformed with Agrobacterium tumefaciens strain (GV3101:pMP90 RK) through vacuum infiltration (Clough, S. J. & Bent, A. F. Plant Journal. 16, 735-743 (1998)). Transformants were selected on kanamycin containing plates, and molecularly confirmed using northern blots. All analyses were performed using lines homozygous for the transgenic trait.
# as §1, with “analyses.” for “analyses. Seeds from Solanum esculentum, Hordeum vulgare, Zea mays, Populus tremuloides, Nicotiana tabacum and Arabidopsis thaliana were surface sterilised and grown for two to three weeks on agar media identical to the nitrate free media described above and amended with 0, 0.3, 3 and 30 mM D-serine.”
# Transgenic Arabidopsis thaliana plants expressing the gene encoding D-serine dehydratase were grown sterile alongside wild type plants on agar for 20 days on standard MS medium supplemented with varying concentrations of D-serine as the sole N source (30 mM, 3 mM, 0.3 mM) along with a control lacking any nitrogen.
# [16] = system: wild-type Arabidopsis thaliana; experiment: Growth of wild-type plants on sterile agar supplied with D-serine; type: in vivo; details: for toxicity to wild-type plants: FIG. 3, FIG. 5
# Experimental: as §1, with “D-serine. […] For A. thaliana, clear growth inhibition is observed at a concentration of 0.3 mM D-serine in the growth medium and total growth inhibition occurs at 3 mM (FIG. 3). Transgenic Arabidopsis thaliana plants expressing the gene encoding D-serine dehydratase were grown sterile alongside wild type plants on agar for 20 days on standard MS medium supplemented with varying concentrations of D-serine as the sole N source (30 mM, 3 mM, 0.3 mM) along with a control lacking any nitrogen.” for “D-serine.”
smiles,measurement,setting,value
NC(=O)C[C@@H](N)C(=O)O [D-Asn],growth of wild type plants,"[1]; 30 mM, sterile agar culture",only partially retarded
same,growth / germination of D-amino oxidase expressing plants,"[2]; 30 mM, sterile agar culture",total inhibition of growth; also recorded: inhibited significantly more than the wild-type
C[C@@H](N)C(=O)O [D-alanine],effect of expressed D-amino acid oxidase on toxicity of the D-amino acid,[2]; in vivo,alleviate the toxicity
CC[C@@H](C)[C@@H](N)C(=O)O [D-ile],wild type growth with increasing concentration,[1]; examined interval 0.3 to 30 mM,increase in growth
same,inhibitory effect on wild type plants,[1]; in vivo,no visible inhibitory effect
same,hindering of growth of transgenic plants expressing dao1 (compared with D-Asn),[2]; in vivo,even more effective in hindering growth
N[C@H](CO)C(=O)O [D-serine],D-serine concentration in the media at which growth was inhibited,[3],3 mM
same,D-serine concentration in the media at which growth was inhibited,[4],30 mM
same,D-serine concentration in the media at which growth was inhibited,[5],3 mM
same,D-serine concentration in the media at which growth was inhibited,[6],3 mM
same,D-serine concentration in the media at which growth was inhibited,[7],30 mM
same,selection of transgenic plants by spraying,[8],Successful selection
same,D-serine concentration of medium on which transformed embryos could be selected,[9],3 mM
same,concentration to which transformed plants were resistant,[10],exceeding 30 mM
same,concentration to which transformed plants were resistant,[11],exceeding 30 mM
same,concentration sufficient to stop all shoot formation,[12],30 mM
same,concentration sufficient to stop all shoot formation,[13],3 mM
same,concentration lethal to cells,[14],≥ 3 mM
same,effect of expressed D-amino acid oxidase on toxicity of the D-amino acid,[2]; in vivo,alleviate the toxicity
same,N concentration of plants compared with plants grown on 3 mM nitrate,"[15]; 3 mM D-serine, ANOVA p<0.0001",significantly lower
same,growth and N content of transgenic plants with increasing D-serine concentration,"[15]; D-serine as sole N source, p<0.0001 (FIG. 4)",increase significantly
same,growth on D-serine compared with nitrate at equal concentration,[15]; FIG. 4(top) and 5(top),lower growth
same,growth and nitrogen content of transgenic plants with increasing D-serine concentration,"[15]; in the presence of a basic level of nitrate (3 mM), p<0.0001 (FIG. 5)",increased significantly
same,toxicity symptoms in transgenic plants,[15]; within the observed range of D-Ser,no toxicity symptoms
same,growth of wild-type plants with increasing D-serine concentration,"[16]; D-serine as sole N source, 0.3, 3, 30 mM (FIG. 3)",No increase
same,concentration in the growth medium at which clear growth inhibition is observed,[16]; FIG. 3,0.3 mM
same,concentration in the growth medium at which total growth inhibition occurs,[16]; FIG. 3,3 mM
same,toxicity to wild-type plants,[16],toxic effect
same,toxicity to wild-type plants,[16]; listed as D-ser,shows toxicity
same,growth and nitrogen content of wild-type plants with increasing D-serine concentration,[16]; in the presence of a basic level of nitrate (3 mM) (FIG. 5),opposite response
same,D-serine concentration in the media at which growth was inhibited,"[16]; nitrate free agar, two to three weeks, 0, 0.3, 3 and 30 mM tested",3 mM
